The record followed here is patent publication US20040214270A1, “Isocitrate dehydrogenase, gene thereof, and use of the same in the treatment of obesity, hyperlipidemia, and fattly liver in lipid biosynthesis” (priority 2000, published 2004).

Assay [1] deals with NIH3T3 L1 cells into which only pLNCX vector was introduced. The assay is described as follows: Differentiation of adipocytes and oil deposition according to concentration of NADPH (Oil-Red-O). The format is cell-based, mouse. Here is the method: To examine the influence of IDPc on the synthesis of fatty acids, the transfectant cell lines were cultured in 10% FBS-supplemented DMEM containing insulin 5 μg/ml, 0.5 mM 3-isobutyl-1-methylxanthine (IBMX, Sigma), 1 μM dexamethasone (DEX), and penicillin-streptomycin (Gibco BRL), each 50,000 units, for two days to increase the counts of the cells to a density of approximately 3×10^4 cells/cm^2. Thereafter, the cells were further cultured for 12 days in DMEM free of IBMX and DEX while the medium was refreshed every other day. Cell culturing was carried out in a CO2 incubator at 37° C. under a wet, 5% CO2 atmosphere.
After culturing, the cells were treated with Oil-Red-O, which specifically dyes oil, to observe oil deposits formed in adipocytes. In this connection, the medium was depleted, after which 10 ml of a cacodylate buffer (90 mM cacodylate, pH 7.2, 2% formaldehyde, 2.5% glutaraldehyde, 0.025% CaCl2, 5% sucrose) was added to the cells, which was then allowed to stand at 4° C. for 1 hour. After removal of the buffer, 5 ml of Oil-Red-O in 40% isopropanol was added to the cells and slowly mixed over 1 hour, followed by washing with 40% isopropanol.
The effect of NADPH, a metabolic product of IDPc, on the deposition of cellular oils was quantitatively measured with Oil-Red-O, a dye specific for lipids. […]

The target in assay [2] is isocitrate dehydrogenase (Mus musculus, UniProt O88844). The assay is described as follows: Screening of inhibitors against isocitrate dehydrogenase (spectrophotometry, absorbance at 340 nm). The assay is classed as biochemical. The note with it: change in absorbance at 340 nm with time, 25° C. Here is the method: In this connection, spectrophotometry is very useful. In more detail, first, a spectrophotometer is adjusted to zero absorbance at 340 nm using a mixture of a ten-fold concentrated reaction buffer plus 3rd distilled water. After a crystal cuvette containing the 10× buffer, a test sample and 3rd distilled water is installed in the spectrophotometer, isocitrate dehydrogenase is added to the cuvette and a measurement is made of the change in absorbance at 340 nm with time.
Because an absorbance decreases faster in the cuvette containing a greater concentration of a sample inhibitory against the activity of the enzyme, the analysis of the spectrophotometric data enables the screening of inhibitors of isocitrate dehydrogenase.
An assay buffer (50 mM MOPS, pH 7.2, 35.5 mM triethanolamine, pH 7.2, 2 mM NADP^+, 2 mM MgCl2, 5 mM isocitrate, rotenone 1 mg/ml) and test samples were all prepared at 10× concentration. Enzymatic reactions necessary for the selection were conducted in a final volume of 1 ml at 25° C. in crystal cuvette. For use, the concentrated test samples were diluted with 3rd distilled water. The assay buffer, enzyme inhibitors, and isocitrate dehydrogenase, which all at 10× concentration, were maintained at low temperature, i.e., in ice.
A spectrophotometer was first subjected to null adjustment at 340 nm using the 10× assay buffer and 3rd distilled water. 100 μl of the sample was added, along with 100 μl of the 10× assay buffer, in a crystal cuvette, and mixed with 600 μl of 3rd distilled water. After the completion of the null adjustment, the sample cuvette was installed in the spectrophotometer, followed by adding 200 μl of isocitrate dehydrogenase and mixing the solution with the aid of a pipette. Changes in absorbance at 340 nm were monitored with time. In principle, an absorbance decreases faster in the cuvette containing a greater concentration of a sample inhibitory against the activity of the enzyme. Based on this principle, the quantification of the spectrophotometric data enabled the screening of inhibitors of isocitrate dehydrogenase.

In assay [3] the test system is 3T3-L1 cells. The assay is described as follows: Prevention of oil deposition in 3T3-L1 by isocitrate dehydrogenase inhibitor (Oil-Red-O). The format is cell-based, mouse. The note with it: cells treated with inhibitor vs no isocitrate inhibitors, FIG. 9. An excerpt:
After being treated with the isocitrate dehydrogenase inhibitors methyl isocitric acid and oxalomalic acid, 3T3-L1 cells, which remain undifferentiated, were examined for their differentiation to adipocytes. Effects of the isocitrate dehydrogenase inhibitors on fatty acid synthesis could be identified through the visualization using Oil-Red-O, a oil-specific dye.

The subject of assay [4] is rats. The assay is described as follows: Restrictive effect of isocitrate dehydrogenase inhibitor on obesity in rats. The format is in vivo, rat. Here is the method: 26 weeks after birth, rats were compared for cellular lipid deposition when they were treated with no isocitrate dehydrogenase inhibitors and methyl isocitric acid.
A container suitable for receiving a rat was placed on a scale which was then subjected to null adjustment, after which a rat was carefully put in the container.
The livers and adipose tissues taken from inhibitor-administered rats and non-administered rats were homogenized in a buffer (0.32 M sucrose, 0.01 M Tris-Cl pH 7.4) and centrifuged at 3,000×g for 10 min. Again, the supernatant was centrifuged at 10,000×g for 15 min. A pure cytosolic fraction was obtained as the supernatant. The enzyme activity of IDPc was determined by measuring the change in the production amount of NADPH in a buffer (50 mM MOPS, pH 7.2, 35.5 mM triethanolamine, pH 7.2, 2 mM NADP^+, 2 mM MgCl2, 5 mM isocitrate, and rotenone 1 μg/ml) maintained at 25° C. Using a spectrophotometer, absorbance at 340 nm was measured for 2 min to quantify the amount of NADPH produced by the IDPc contained in the cytoplasmic protein, thereby determining the enzyme activity of IDPc. For the quantification of the enzyme, the amount which produced 1 μM of NADPH in 1 min was defined as 1 unit. Protein quantification was performed according to the Bradford assay.
In order to measure the blood triglyceride levels and total cholesterol, assay kits manufactured by Asan Pharmaceutics. Co. Ltd. were used. After being treated with an anti-coagulant, blood taken from the inhibitor-administered rats and non-administered rats was centrifuged to obtain sera. 10 μl of each of the sera was mixed with 1.5 ml of a triglyceride-assay kit [a solution of lipoproteinase 10800 U, glycerol kinase 5.4 U, peroxidase 135000 U, and L-α-glycerophosphate oxidase 160 U in 72 ml of N,N-bis(2-hydroxyethyl)-2-aminomethanesulfonic acid buffer] or 1.5 ml of a cholesterol enzyme-assay kit (a mixture of an enzyme solution (cholesterol esterase 20.5 KU/l, cholesterol oxidase 10.7 KU/l, and sodium hydroxide 1.81 g/l) and a buffer (potassium monophosphate 13.6 g/l, phenol 1.88 g/l) in the proportions of 1:1) and incubated at 37° C. for 5 min for reaction. In a microplate reader, a measurement was done by reading absorbance at 500 nm for cholesterol and at 540 nm for triglyceride, so as to quantify blood levels of triglyceride and total cholesterol. In connection to the quantification of triglyceride and cholesterol, there was utilized a standard curve which was obtained by applying the above procedure to various known concentrations of a standard solution.
A predetermined amount of the liver was taken from both the inhibitor-administered mice and non-administered mice and homogenized in 1 ml of CIAA (chloroform:isoamyl alcohol=2:1 v/v). 100 μl of the homogenate was dissolved in 200 μl of pure ethyl alcohol and mixed with 500 μl of each of the assay kits for triglyceride and cholesterol, manufactured by Asan Pharmaceutics, Co. Ltd., containing 0.5% Triton X-100 and 3 mM sodium cholate, followed by incubation at 37° C. for 10 min. After being added with 800 μl of water, each sample was measured for liver triglyceride and total cholesterol levels with the aid of a microplate reader in the same manner as in above. Likewise, the above procedure was applied to various known concentrations of a standard solution to acquire a standard curve which was used to quantify triglyceride and cholesterol levels in the liver.

SMILES strings stand for the structures. Entries after “also recorded” stand apart in the source; their conditions may differ.

Sequence of isocitrate dehydrogenase (O88844 whole entry): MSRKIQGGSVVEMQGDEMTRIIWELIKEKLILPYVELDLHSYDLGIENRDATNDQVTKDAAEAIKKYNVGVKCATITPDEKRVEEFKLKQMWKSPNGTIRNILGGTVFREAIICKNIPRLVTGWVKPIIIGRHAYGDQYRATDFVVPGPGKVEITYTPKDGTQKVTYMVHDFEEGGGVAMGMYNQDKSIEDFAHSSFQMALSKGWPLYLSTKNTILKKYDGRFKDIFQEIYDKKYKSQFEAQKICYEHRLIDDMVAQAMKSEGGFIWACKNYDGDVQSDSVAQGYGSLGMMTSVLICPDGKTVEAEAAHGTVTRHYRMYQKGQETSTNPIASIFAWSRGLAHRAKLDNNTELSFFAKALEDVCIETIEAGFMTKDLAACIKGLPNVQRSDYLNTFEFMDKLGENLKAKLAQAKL

Take `NC(=O)C1=CN([C@@H]2O[C@H](COP(=O)(O)OP(=O)(O)OC[C@H]3O[C@@H](n4cnc5c(N)ncnc54)[C@H](OP(=O)(O)O)[C@@H]3O)[C@@H](O)[C@H]2O)C=CC1` [NADPH]: the “oil deposits formed within cells (Oil-Red-O)” value in assay [1] (NADPH added at 0 μM, 25 μM and 50 μM to the media during differentiation into adipocytes) is recorded as “accumulated greater amounts of oils; also recorded: larger intracellular lipid deposits”. Besides, the differentiation of adipocytes entry in assay [1] (differentiated in the presence of NADPH, increasing concentration) is listed as “direct positive influence on the differentiation of adipocytes; also recorded: higher differentiation rates”.

As for `CC(NC(C)(C)C)C(=O)c1cccc(Cl)c1` (stereo not shown) [bupropion], the “inhibitory activity against isocitrate dehydrogenase” value (“inhibitory activity” for short) in assay [2] was “only a little inhibitory activity; also recorded: a little inhibitory effect”.

For the compound `CC(O)(C(=O)O)C(CC(=O)O)C(=O)O` (stereo not shown) [methyl isocitric acid], the “cellular oil deposits dyed with Oil-Red-O” value in assay [3] is “reducing cellular oil deposits”. In assay [4], the “arteriosclerosis index, lower” value turned out to be 10. Besides, the “body weight, inhibitor-administered vs non-administered rats” value in assay [4] (10-weeks old) is on record as “No significant difference”. In addition, in assay [4] (FIG. 10a), the “weight of epididymal fat pad, lower compared to non-administered rats” value was “about 12%” and the “weight of the liver, inhibitor-administered vs normal rats” value is “no difference”. Moreover, in assay [4] (FIG. 10b), the “blood level of total cholesterol, lower compared to non-administered rats” value was 11% and the “blood level of triglyceride, lower compared to non-administered rats” value turned out to be 20%. Also, the “high-density lipoproteins (HDL) level, higher compared to non-administered rats” value in assay [4] (blood, FIG. 10c) worked out at 11%. In assay [2], the “inhibitory activity” value is “strong inhibitory activity; also recorded: definite inhibitory activity”.

`NC(=O)c1cccnc1` [nicotine amide]: in assay [2], the “inhibitory activity” value is “No inhibitory activity”.

For the compound `O=C(O)c1cccnc1` [nicotinic acid], the “inhibitory activity” value in assay [2] is “No inhibitory activity”.

Consider `O=C(O)C(=O)C(C(=O)O)C(O)C(=O)O` (stereo not shown) [oxalomalic acid], for which the “cellular oil deposits dyed with Oil-Red-O” value in assay [3] is given as “reducing cellular oil deposits”. Moreover, the “inhibitory activity” value in assay [2] is listed as “strong inhibitory activity; also recorded: definite inhibitory activity”.
